This is an account of results in patent US20240108747A1, “EXTRACELLULAR VESICLE CONJUGATES AND USES THEREOF” (LONZA SALES AG, priority 2019, published 2024).

The IC50 is the midpoint of a concentration-inhibition curve.

Starred links: 1 amine or outer side, 2 acyl side, 3 side chain; linkers in the order of their positions; H or OH if unused. Non-standard residues stand in square brackets, D forms with d. Residues, ends and D or L forms follow the SMILES beside them. *: point of attachment. Dolaproine = CO[C@@H]([C@@H]1CCCN1)[C@@H](C)C(=O)O; Hexanoyl(6-maleimido) = O=C1C=CC(=O)N1CCCCCC(=O)*; Dil = CC[C@H](C)[C@H](NC)[C@@H](CC(=O)O)OC; PABC = O=C(OCc1ccc(N[*:1])cc1)[*:2]; X1 = C[C@@H](N*)[C@@H](O)c1ccccc1; Cit = NC(=O)NCCC[C@H](N)C(=O)O; NMeV = CN[C@H](C(=O)O)C(C)C

For one data set, the system named is RAW264.7 (RAW) cells. Nature of the data set: MMAE cytotoxicity / cell growth on RAW264.7 cells (IncuCyte). The format is cell-based, mouse. The protocol: The dose-response effects of MMAE on RAW cell growth are shown in microphotographs (top), and measurements of cells growth (bottom left), and confluence (bottom right).
MMAE cytotoxicity was assessed on RAW264.7 (RAW) cells. RAW cells are a […] macrophage cell line. 10,000 RAW cells were seeded in each well of a 96 well plate, and cell growth was monitored using an IncuCyte instrument to image cells over a period of approximately 5 days. […] Images show cells after 5 days of treatment with the indicated dose of MMAE or DMSO; growth inhibition is evident from the decreased number of cells after treatment with MMAE, while cell death is indicated by the rounding up of cells (evident in the 10, 100, and 300 nM images). MMAE has a steep dose-response curve.

The next data set concerns the target recombinant human LPA-1 (Homo sapiens, UniProt Q92633). Particulars: cited from earlier work.
The target in a further data set is mouse LPA-1 (Mus musculus, UniProt P61793). The note with it: cited from earlier work.
mouse LPA-1, sequence (P61793 whole entry): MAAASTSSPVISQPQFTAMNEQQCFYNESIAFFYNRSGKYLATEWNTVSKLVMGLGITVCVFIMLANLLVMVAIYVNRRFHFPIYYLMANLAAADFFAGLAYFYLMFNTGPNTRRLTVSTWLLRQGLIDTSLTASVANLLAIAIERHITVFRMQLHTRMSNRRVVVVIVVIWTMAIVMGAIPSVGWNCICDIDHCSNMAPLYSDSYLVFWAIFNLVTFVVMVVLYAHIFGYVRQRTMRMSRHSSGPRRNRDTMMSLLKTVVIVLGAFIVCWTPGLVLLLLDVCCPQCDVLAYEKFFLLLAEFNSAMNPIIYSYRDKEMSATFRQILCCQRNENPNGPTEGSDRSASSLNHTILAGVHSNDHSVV
In data set [1] the test system is human A2058 melanoma cells. Particulars: read-out: IC50, inhibition of LPA-1-induced chemotaxis; cited from earlier work.
For data set [2], the system named is LPA-induced histamine release. Particulars: mice; cited from earlier work.
The conditions of data set [3]: cited from earlier work.
Another data set deals with mouse LPA-1/CHO cells. Particulars: read-out: IC50, inhibition of LPA-1-induced chemotaxis; cited from earlier work.
For data set [4] the following is noted: Phase 2 study (Palmer 2018); cited from earlier work.
In a further data set the test system is NLRP1 inflammasome. The note with it: cited from earlier work.
The test system of the next data set is AIM2 inflammasome. Particulars: cited from earlier work.
The test system of another data set is TLR2 signaling. Particulars: cited from earlier work.
For another data set, the system named is NLRC4 inflammasome. Particulars: cited from earlier work.
The target in a further data set is NLRP3 (Sus scrofa, UniProt H2EW08). Particulars: models for myocardial infarction; cited from earlier work.
NLRP3, sequence (H2EW08 1-1036): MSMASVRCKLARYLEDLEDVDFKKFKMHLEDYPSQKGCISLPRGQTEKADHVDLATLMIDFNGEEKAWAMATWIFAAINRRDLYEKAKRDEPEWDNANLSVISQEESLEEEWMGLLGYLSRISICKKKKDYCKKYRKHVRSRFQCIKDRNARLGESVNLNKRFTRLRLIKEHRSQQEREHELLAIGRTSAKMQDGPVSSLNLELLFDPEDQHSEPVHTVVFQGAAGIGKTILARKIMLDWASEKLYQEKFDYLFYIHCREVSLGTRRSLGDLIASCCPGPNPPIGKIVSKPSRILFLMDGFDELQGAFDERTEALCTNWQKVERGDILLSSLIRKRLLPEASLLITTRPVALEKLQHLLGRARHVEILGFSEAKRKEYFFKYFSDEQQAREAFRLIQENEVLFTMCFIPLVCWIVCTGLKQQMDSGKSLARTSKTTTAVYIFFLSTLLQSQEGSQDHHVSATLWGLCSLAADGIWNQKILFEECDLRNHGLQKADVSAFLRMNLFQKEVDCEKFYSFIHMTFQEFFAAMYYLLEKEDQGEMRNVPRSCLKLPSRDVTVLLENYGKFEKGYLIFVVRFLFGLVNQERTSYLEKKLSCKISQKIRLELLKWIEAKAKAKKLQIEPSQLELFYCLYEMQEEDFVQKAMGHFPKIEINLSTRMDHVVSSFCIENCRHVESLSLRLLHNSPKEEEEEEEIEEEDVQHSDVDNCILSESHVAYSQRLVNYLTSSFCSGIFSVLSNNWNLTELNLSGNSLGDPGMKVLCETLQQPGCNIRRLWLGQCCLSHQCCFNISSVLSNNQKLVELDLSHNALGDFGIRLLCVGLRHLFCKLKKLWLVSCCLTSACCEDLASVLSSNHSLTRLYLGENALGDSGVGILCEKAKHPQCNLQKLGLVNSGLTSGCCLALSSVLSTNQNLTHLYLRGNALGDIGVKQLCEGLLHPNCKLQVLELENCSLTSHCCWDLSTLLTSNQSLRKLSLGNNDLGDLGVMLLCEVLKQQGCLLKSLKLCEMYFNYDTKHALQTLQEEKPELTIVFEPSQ

recombinant human LPA-1, sequence (Q92633 whole entry): as the sequence (P61793 whole entry) above, with A4I, S8I, Q22P, Y40H, V61I, D193E, H194N, V269I, N331S, N335T counted along it

With `CC[C@H](C)[C@@H]([C@@H](CC(=O)N1CCC[C@H]1[C@H](OC)[C@@H](C)C(=O)N[C@H](C)[C@@H](O)c1ccccc1)OC)N(C)C(=O)[C@@H](NC(=O)[C@H](C(C)C)N(C)C(=O)OCc1ccc(NC(=O)[C@H](CCCNC(N)=O)NC(=O)[C@@H](NC(=O)CCCCCN2C(=O)C=CC2=O)C(C)C)cc1)C(C)C` [vc-MMAE, maleimide-vc-PABC-MMAE] ({Hexanoyl(6-maleimido)}-V[Cit][PABC][NMeV]V[Dil][Dolaproine]-X1), in the data set on RAW264.7 (RAW) cells (administered to cells as a free drug, FIG. 8A), the “fold less toxic than unmodified MMAE” value is “approximately 100 fold”.

As for `Cc1noc(-c2ccc(-c3ccc(CC(=O)O)cc3)cc2)c1NC(=O)O[C@H](C)c1ccccc1` [AM095, 1,1′-Biphenyl]-4-acetic acid, 4′-[3-methyl-4-[[[(1R)-1-phenylethoxy]carbonyl]amino]-S-isoxazolyl[ ]-], the IC50 on recombinant human LPA-1 is 980 nM; at mouse LPA-1, 730 nM; in [1], 230 nM; with mouse LPA-1/CHO cells, 780 nM. Also, in [2], the “ED50, block of LPA-induced histamine release” value is on record as 8.3 mg/kg. Further, the “ED50, reduction of BALF collagen and protein” value in [3] (in lungs) is given as 10 mg/kg. The “macrophage and lymphocyte infiltration induced by bleomycin” value in data set [3] (mice) is “decrease both macrophage and lymphocyte infiltration”.

As to `Cc1noc(-c2ccc(-c3ccc(C4(C(=O)O)CC4)cc3)cc2)c1NC(=O)O[C@H](C)c1ccccc1` [AM152, Cyclopropanecarboxylic acid, 1-[4′-[3-methyl-4-[[[(1R)-1-phenylethoxy]carbonyl]amino]-S-isoxazolyl][1,1′-biphenyl]-4-yl]-], the “toxicity leading to early termination of the study” value in data set [4] is “gall bladder toxicity and early signs of liver toxicity”.

`CC(C)(O)c1coc(S(=O)(=O)NC(=O)Nc2c3c(cc4c2CCC4)CCC3)c1` [MCC950, N-[[(1,2,3,5,6,7-hexahydro-s-indacen-4-yl)amino]carbonyl]-4-(1-hydroxy-1-methylethyl)-2-furansulfonamide]: the “inhibition of NLRP1 inflammasome” value in the data set with NLRP1 inflammasome is “does not inhibit”. For the same compound, in the data set with AIM2 inflammasome, the “inhibition of AIM2 inflammasome” value was “does not inhibit”. Besides, the “inhibition of TLR2 signaling” value in the data set with TLR2 signaling is reported as “does not inhibit”. Further, the “inhibition of NLRC4 inflammasome” value in the data set with NLRC4 inflammasome is given as “does not inhibit”. The “NLRP3-induced IL-1β production” value at NLRP3 was “inhibits NLRP3-induced IL-1β production”.

For the compound `CC[C@H](C)[C@@H]([C@@H](CC(=O)N1CCC[C@H]1[C@H](OC)[C@@H](C)C(=O)N[C@H](C)[C@@H](O)c1ccccc1)OC)N(C)C(=O)[C@@H](NC(=O)[C@@H](NC)C(C)C)C(C)C` [MMAE, monomethyl auristatin E] (H-[NMeV]V[Dil][Dolaproine]-X1), the “MMAE concentrations giving potent growth inhibition and cell death” value with RAW264.7 (RAW) cells (free drug, about 5 days, FIG. 7) was “above 1.1 nM”.
